Data: patent publication US9453026B2, “ACC inhibitors and uses thereof” (Gilead Apollo, Inc., priority 2011, dated 2016)

Legend:
[1] = assay type: in vivo, Sprague Dawley rats; details: 2 weeks
Experimental: The compounds of the present invention are readily adapted to clinical use as anti-obesity agents, insulin sensitizing agents, hyperinsulinemia-reversing agents, and hepatic steatosis-reversing agents. Such activity was determined by assessing the amount of test compound that reduces body weight and percentage body fat, reduces plasma insulin levels, blunts the rise and/or accelerates the reduction in plasma insulin and glucose levels in response to an oral glucose challenge, and reduces hepatic lipid content relative to a control vehicle without test compound in mammals. Sprague Dawley rats were fed either chow, a diet high in sucrose (for example AIN76A rodent diet; Research diets Inc. Cat #10001) or a diet high in fat (for example Research diets Inc. Cat #12451), for from 3-8 weeks prior to and during test compound administration.
For example, after a 3-8 week period of ad libitum feeding of either a chow, high-fat, or high-sucrose diet, animals that continued to receive the diet were treated for 1-8 weeks with test compound administered either by oral gavage in water or saline or water or saline containing 0.5% methylcelluose using a Q.D., B.I.D, or T.I.D. dosing regimen. At various times during study and at sacrifice (by CO2 asphyxiation), blood was collected either from the tail vein of an unanesthesized rat or from the vena cava of animals at sacrifice into heparin or EDTA containing tubes for centrifugal separation to prepare plasma. Plasma levels of parameters of lipid and carbohydrate metabolism known by those skilled in the art to be altered coincident with anti-obesity, insulin sensitizing, hyperinsulinemia-reversing, and hepatic steatosis-reversing actions, including but not limited to cholesterol and triglycerides, glucose, insulin, leptin, adiponectin, ketone bodies, free fatty acids, and glycerol, are measured using methods known to those skilled in the art.
The anti-obesity, insulin sensitizing, hyperinsulinemia-reversing, and hepatic steatosis-reversing potential of compounds of the present invention are exemplified through the actions of example compound I-181. […] Results of the reduction in total body weight measurements after treatment of high fat diet-fed DIO rats with compound I-181 are shown in FIG. 11. The degree of body weight reduction paralleled plasma drug levels measured at the end of the study. […] The plasma leptin levels for animals receiving the standard chow diet (lean controls) were also evaluated to determine the extent of parameter normalization produced by compound I-181. […] Results of the reduction in plasma insulin measurements after treatment of high fat diet-fed DIO rats with compound I-181 are shown in FIG. 12. […] Results of the reduction in hepatic triglyceride and cholesterol measurements after treatment of high fat diet-fed DIO rats with compound I-181 are shown in FIG. 13. […] Results of diet-induced obesity studies measuring the effect of compound I-181 on plasma cholesterol and plasma triglycerides are shown in Table 4 below. Data shown are mean values for n=14 animals per group±SEM.

[2] = system: HepG2 cells; test: [14C] Acetate Incorporation HepG2 Cellular Assay; assay type: cell-based; details: Hep-G2 cells, FIG. 7
Experimental: Compounds of the present invention were evaluated in a [^14C] Acetate Incorporation Assay. An exemplary procedure for the assay, which measures the incorporation of isotopically labeled acetate into fatty acids, follows. HepG2 cells were maintained in T-75 flasks containing DMEM supplemented with 2 mM 1-glutamine, penicillin G (100 units/ml), streptomycin 100 μg/ml with 10% FBS and incubated in a humidified incubator with 5% CO2 at 37° C. Cells were fed every 2-3 days. On Day 1. cells were seeded in 24 well plates at a density of 1.2×10^5 cells/ml/well with the growth medium. On Day 3 the medium was replaced with fresh medium containing 10% FBS. On Day 4 the medium was replaced with 0.5 ml of fresh medium containing test compound (in DMSO; final [DMSO] is 0.5%) and the cells were incubated at 37° C. for 1 hour. To one copy of plate, 4 ul of [2-^14C]acetate (56 mCi/mmol; 1 mCi/ml; PerkinElmer) was added and the cells were incubated at 37° C., 5% CO2 for 5 hrs. To a second copy of plate, 4 ul of cold acetate were added and the cells were incubated at 37° C., 5% CO2 for 5 hrs. This plate was used for protein concentration measurement. Medium was removed and placed in a 15 ml centrifuge tube (BD, Falcon/352096). Cells were rinsed with 1 ml PBS, then aspirated, and the rinse and aspiration steps were repeated. 0.5 ml of 0.1N NaOH were added to each well and let sit at RT to dissolve cell monolayer. The remaining cell suspension was pooled with medium. For the protein determination plate, an aliquot was removed for protein determination (25 ul). […] 5 ml petroleum ether was added per tube, shaken vigorously, centrifuged at 1000 rpm for 5 min, and 500 uL of the petroleum ether layer was transferred to tubes for Microbeta reading, then 2 ml Aquasol-2 were added to each tube, the tubes were shaken and counted with a Microbeta Liquid Scintillation Counter (Perkin Elmer).
The remaining petroleum ether layer was discarded and the aqueous phase reserved for fatty acid extractions. […] 2 ml of Aquasol-2 was added to each vial, and the vials were shaken and counted on a scintillation counter.

[3] = high-fat diet rats, 3, 10, 30 mg/kg once daily oral gavage

Structure (SMILES): COc1ccccc1[C@H](Cn1c(=O)n(C(C)(C)C(=O)O)c(=O)c2c(C)c(-c3ncco3)sc21)OC1CCOCC1 [I-181, 2-[1-[2-(2-methoxyphenyl)-2-(oxan-4-yloxy)ethyl]-5-methyl-6-(1,3-oxazol-2-yl)-2,4-dioxo-1H,2H,3H,4H-thieno[2,3-d]pyrimidin-3-yl]-2-methylpropanoic acid]
- plasma glucose levels [1, 3]: no concomitant reduction in plasma glucose levels
- plasma leptin levels [1, 3]: reduced by all compound I-181 doses evaluated
- total body weight relative to vehicle-treated control animals ([1]; high-fat diet rats, 3, 10, 30 mg/kg once daily oral gavage, FIG. 11): dose-dependent reduction in total body weight
- plasma insulin levels ([1]; high-fat diet rats, 3, 10, 30 mg/kg once daily oral gavage, FIG. 12): reduced to near lean control levels by all three compound I-181 doses
- hepatic triglycerides ([1]; high-fat diet rats, 3, 10, 30 mg/kg once daily oral gavage, FIG. 13): reduced in a dose-dependent manner
- hepatic triglycerides at the highest dose ([1]; high-fat diet rats, highest dose evaluated (30 mg/kg)): normalized to lean control levels by the highest dose evaluated
- incorporation of isotopically labeled acetate into fatty acids [2]: inhibit incorporation of isotopically labeled acetate into fatty acids
